Measurements taken from ChEMBL document CHEMBL5154747, “Discovery of new carbonic anhydrase IX inhibitors as anticancer agents by toning the hydrophobic and hydrophilic rims of the active site to encounter the dual-tail approach” (Eur J Med Chem, 2022).

Tests used:
Type in all cases: functional
TK-10 = test: Anticancer activity against human TK-10 cells assessed as cell growth inhibition incubated for 48 hrs by SRB assay
HCT-116 = test: Anticancer activity against human HCT-116 cells assessed as cell growth inhibition incubated for 48 hrs by SRB assay
PC-3 = test: Anticancer activity against human PC-3 cells assessed as cell growth inhibition incubated for 48 hrs by SRB assay
COLO 205 = test: Anticancer activity against human COLO 205 cells assessed as cell growth inhibition incubated for 48 hrs by SRB assay
BT-549 = test: Anticancer activity against human BT-549 cells assessed as cell growth inhibition incubated for 48 hrs by SRB assay
HT-29 = test: Anticancer activity against human HT-29 cells assessed as cell growth inhibition incubated for 48 hrs by SRB assay
MDA-MB-468 = test: Anticancer activity against human MDA-MB-468 cells assessed as cell growth inhibition incubated for 48 hrs by SRB assay
M14 = test: Anticancer activity against human M14 cells assessed as cell growth inhibition incubated for 48 hrs by SRB assay
T47D = test: Anticancer activity against human T47D cells assessed as cell growth inhibition incubated for 48 hrs by SRB assay
SNB-75 = test: Anticancer activity against human SNB-75 cells assessed as cell growth inhibition incubated for 48 hrs by SRB assay
ACHN = test: Anticancer activity against human ACHN cells assessed as cell growth inhibition incubated for 48 hrs by SRB assay
UACC-62 = test: Anticancer activity against human UACC-62 cells assessed as cell growth inhibition incubated for 48 hrs by SRB assay
KM12 = test: Anticancer activity against human KM12 cells assessed as cell growth inhibition incubated for 48 hrs by SRB assay
OVCAR-8 = test: Anticancer activity against human OVCAR-8 cells assessed as cell growth inhibition incubated for 48 hrs by SRB assay
NCI-H23 = test: Anticancer activity against human NCI-H23 cells assessed as cell growth inhibition incubated for 48 hrs by SRB assay
HL-60(TB) = test: Anticancer activity against human HL-60(TB) cells assessed as cell growth inhibition incubated for 48 hrs by SRB assay
SF-295 = test: Anticancer activity against human SF-295 cells assessed as cell growth inhibition incubated for 48 hrs by SRB assay
SN12C = test: Anticancer activity against human SN12C cells assessed as cell growth inhibition incubated for 48 hrs by SRB assay
U-251 = test: Anticancer activity against human U-251 cells assessed as cell growth inhibition incubated for 48 hrs by SRB assay
RPMI-8226 = test: Anticancer activity against human RPMI-8226 cells assessed as cell growth inhibition incubated for 48 hrs by SRB assay
SK-MEL-5 = test: Anticancer activity against human SK-MEL-5 cells assessed as cell growth inhibition incubated for 48 hrs by SRB assay
Hs-578T = test: Anticancer activity against human Hs-578T cells assessed as cell growth inhibition incubated for 48 hrs by SRB assay
NCI-H226 = test: Anticancer activity against human NCI-H226 cells assessed as cell growth inhibition incubated for 48 hrs by SRB assay
UO-31 = test: Anticancer activity against human UO-31 cells assessed as cell growth inhibition incubated for 48 hrs by SRB assay
MCF7 = test: Anticancer activity against human MCF7 cells assessed as cell growth inhibition incubated for 48 hrs by SRB assay
OVCAR-4 = test: Anticancer activity against human OVCAR-4 cells assessed as cell growth inhibition incubated for 48 hrs by SRB assay
HOP-92 = test: Anticancer activity against human HOP-92 cells assessed as cell growth inhibition incubated for 48 hrs by SRB assay
786-0 = test: Anticancer activity against human 786-0 cells assessed as cell growth inhibition incubated for 48 hrs by SRB assay
NCI-H322M = test: Anticancer activity against human NCI-H322M cells assessed as cell growth inhibition incubated for 48 hrs by SRB assay
SR = test: Anticancer activity against human SR cells assessed as cell growth inhibition incubated for 48 hrs by SRB assay
SF-539 = test: Anticancer activity against human SF-539 cells assessed as cell growth inhibition incubated for 48 hrs by SRB assay
CAKI-1 = test: Anticancer activity against human CAKI-1 cells assessed as cell growth inhibition incubated for 48 hrs by SRB assay
SNB-19 = test: Anticancer activity against human SNB-19 cells assessed as cell growth inhibition incubated for 48 hrs by SRB assay
CCRF-CEM = test: Anticancer activity against human CCRF-CEM cells assessed as cell growth inhibition incubated for 48 hrs by SRB assay
NCI-H522 = test: Anticancer activity against human NCI-H522 cells assessed as cell growth inhibition incubated for 48 hrs by SRB assay
HCT-15 = test: Anticancer activity against human HCT-15 cells assessed as cell growth inhibition incubated for 48 hrs by SRB assay
HCC 2998 = test: Anticancer activity against human HCC 2998 cells assessed as cell growth inhibition incubated for 48 hrs by SRB assay
SK-OV-3 = test: Anticancer activity against human SK-OV-3 cells assessed as cell growth inhibition incubated for 48 hrs by SRB assay
SF-268 = test: Anticancer activity against human SF-268 cells assessed as cell growth inhibition incubated for 48 hrs by SRB assay
OVCAR-5 = test: Anticancer activity against human OVCAR-5 cells assessed as cell growth inhibition incubated for 48 hrs by SRB assay
[1] = read-out: LC50 (the source's name)

Work on `NS(=O)(=O)c1ccc(Nc2nc(N/N=C/c3ccccn3)nc(Nc3ccccc3)n2)cc1` yielded a GI50 (TK-10) of 1190 nM, a CC50 (TK-10; [1]) of over 100000 nM and a GI50 (HCT-116) of 390 nM. For the same molecule, the LC50 (concentration killing 50% of cells) (HCT-116) was over 100000 nM, the GI50 (PC-3) was 690 nM and the CC50 (PC-3; [1]) was over 100000 nM. It also gave a GI50 (COLO 205) of 410 nM, a CC50 (COLO 205; [1]) of over 100000 nM and a GI50 (BT-549) of 890 nM. For the same molecule, the CC50 (BT-549; [1]) was over 100000 nM, the GI50 (HT-29) was 2150 nM and the CC50 (HT-29; [1]) was over 100000 nM. The GI50 (MDA-MB-468) was 310 nM, the CC50 (MDA-MB-468; [1]) was over 100000 nM and the GI50 (M14) was 850 nM. For the same molecule, the GI50 (T47D) was 470 nM, the LC50 (T47D) was over 100000 nM and the GI50 (SNB-75) was 1320 nM. For the same molecule, the LC50 (concentration killing 50% of cells) (SNB-75) was 5710 nM, the GI50 (ACHN) was 1120 nM and the GI50 (UACC-62) was 570 nM. For the same molecule, the LC50 (UACC-62) was 6150 nM, the GI50 (KM12) was 2140 nM and the CC50 (KM12; [1]) was over 100000 nM. For the same molecule, the GI50 (OVCAR-8) was 440 nM, the LC50 (OVCAR-8) was over 100000 nM and the GI50 (NCI-H23) was 1210 nM. The CC50 (NCI-H23; [1]) was 8410 nM, the GI50 (HL-60(TB)) was 630 nM and the CC50 (HL-60(TB); [1]) was over 100000 nM. It also gave a GI50 (SF-295) of 1400 nM, a CC50 (SF-295; [1]) of over 100000 nM and a GI50 (SN12C) of 1010 nM. It also gave an LC50 (SN12C) of over 100000 nM, a GI50 (U-251) of 510 nM and a CC50 (U-251; [1]) of over 100000 nM. It also gave a GI50 (RPMI-8226) of 2110 nM, an LC50 (concentration killing 50% of cells) (RPMI-8226) of over 100000 nM and a GI50 (SK-MEL-5) of 780 nM. The LC50 (SK-MEL-5) was 4710 nM, the GI50 (Hs-578T) was 1880 nM and the LC50 (concentration killing 50% of cells) (Hs-578T) was over 100000 nM. It also gave a GI50 (NCI-H226) of 1070 nM, a CC50 (NCI-H226; [1]) of over 100000 nM and a GI50 (UO-31) of 1500 nM. It also gave a CC50 (UO-31; [1]) of 89500 nM, a GI50 (MCF7) of 1100 nM and an LC50 (MCF7) of 6800 nM. The GI50 (OVCAR-4) was 440 nM, the LC50 (concentration killing 50% of cells) (OVCAR-4) was over 100000 nM and the GI50 (HOP-92) was 800 nM. It also gave a CC50 (HOP-92; [1]) of over 100000 nM, a GI50 (786-0) of 1060 nM and a CC50 (786-0; [1]) of over 100000 nM. It also gave a GI50 (NCI-H322M) of 400 nM, a CC50 (NCI-H322M; [1]) of over 100000 nM and a GI50 (SR) of 330 nM. For the same molecule, the CC50 (SR; [1]) was over 100000 nM, the GI50 (SF-539) was 680 nM and the CC50 (SF-539; [1]) was 8000 nM. The GI50 (CAKI-1) was 610 nM, the CC50 (CAKI-1; [1]) was over 100000 nM and the GI50 (SNB-19) was 850 nM. The CC50 (SNB-19; [1]) was over 100000 nM, the GI50 (CCRF-CEM) was 310 nM and the CC50 (CCRF-CEM; [1]) was over 100000 nM. It also gave a GI50 (NCI-H522) of 450 nM, a CC50 (NCI-H522; [1]) of over 100000 nM and a GI50 (HCT-15) of 1450 nM. The CC50 (HCT-15; [1]) was over 100000 nM, the GI50 (HCC 2998) was 650 nM and the CC50 (HCC 2998; [1]) was over 100000 nM. The GI50 (SK-OV-3) was 840 nM, the LC50 (SK-OV-3) was over 100000 nM and the GI50 (SF-268) was 460 nM. For the same molecule, the LC50 (concentration killing 50% of cells) (SF-268) was over 100000 nM, the GI50 (OVCAR-5) was 1600 nM and the CC50 (OVCAR-5; [1]) was over 100000 nM.
